Laboratory results from paper PMC11207729, “Unveiling Anticancer Potential of COX-2 and 5-LOX Inhibitors: Cytotoxicity, Radiosensitization Potential and Antimigratory Activity against Colorectal and Pancreatic Carcinoma” (Pharmaceutics, 2024).
Values joined by “and” are separate entries in the source; they are usually repeats but may differ in a detail not shown here. Equal values may be shown once.

How the values were obtained:
HCT 116 cells = assay: MTT cytotoxicity assay, HCT 116; format: cell-based, human; conditions: for IC50: Homo sapiens, HCT-116, MTT, 72 h after treatment, mean ± SEM; for Selectivity index (IC50 normal cell line/IC50 cancer cell lines), HCT 116: MRC-5 / HCT 116, in brackets
Experimental: (§1) SW620 cells were cultured in Dulbecco’s Modified Eagle’s medium (DMEM, Sigma-Aldrich Chemie GmbH, Steinheim, Germany) and supplemented in the same manner as the previously mentioned cell lines. Cells were grown in cell culture flasks T25 (Sarstedt AG & Co., Nümbrecht, Germany) at appropriate cell densities in the culture medium prior to exposure to treatments. Stock solutions of each compound, prepared in DMSO, were diluted in the culture medium to obtain the appropriate final concentrations.
(§2) The viability of the control and cells treated with the tested compounds was determined by MTT assay. Cells were seeded in 96-well plates at a density of 2000 cells/well, allowed to attach overnight, and then treated with rising concentrations of testing compounds. The ability of viable cells to reduce 3-(4,5-dimethylthiazol-2-yl)-2,5-diphenyltetrazolium bromide into blue-purple formazan crystals, was measured 72 h after the treatments. Namely, l mg/mL of MTT reagent (Sigma-Aldrich Chemie GmbH, Steinheim, Germany) was added to each well and incubated for an additional 4 h. Finally, upon removal of the medium containing MTT, 200 µL of DMSO was added to each well.

BxPC-3 cells = assay: MTT cytotoxicity assay, BxPC-3; format: cell-based, human; conditions: for IC50: MTT, 72 h after treatment, mean ± SEM; for Selectivity index (IC50 normal cell line/IC50 cancer cell lines), BxPC-3: MRC-5 / BxPC-3, in brackets
Experimental: as §1, §2

HT-29 cells [1] = assay: MTT cytotoxicity assay, HT-29; format: cell-based, human; conditions: for IC50: Homo sapiens, HT-29, MTT, 72 h after treatment, mean ± SEM; for Selectivity index (IC50 normal cell line/IC50 cancer cell lines), HT-29: MRC-5 / HT-29, in brackets
Experimental: as §1, §2

MRC-5 cells = assay: MTT cytotoxicity assay, MRC-5 normal fibroblasts; format: cell-based, human; conditions: for IC50: MTT, 72 h after treatment, mean ± SEM, healthy cell line; for Selectivity index, MRC-5: MRC-5 / MRC-5 (reference value), in brackets
SW620 cells [2] = assay: Wound-healing assay; format: cell-based, human; conditions: 25 μM; for Relative Wound Closure (%) 24 h: SW620, 24 h relative to T0, mean ± SEM, control 17.87 ± 3.48; for Relative Wound Closure (%) 48 h: SW620, 48 h relative to T0, mean ± SEM, control 24.51 ± 1.39
Experimental: The migratory potential of SW620 cells (human colon carcinoma cell line) was evaluated by a wound-healing assay. Cells were seeded in density of 300,000 cells per well in 24-well tissue culture microplates and grown for 24 h in DMEM medium supplemented with 10% FBS, penicillin/streptomycin and L-glutamine at 37 °C in a humidified atmosphere containing 5% CO2. Upon reaching confluence, a uniform wound was scratched into a monolayer of each well with a sterile plastic 200 μL micropipette tip. After wounding, the medium was replaced and cells were further treated with 25 μM of compounds 1, 2, 3, and 5 for 24 h and 48 h. Wound closure was monitored by imaging cells at 4× magnification using the ImageXpress® Pico Automated Cell Imaging System (Molecular Devices®, San Jose, CA, USA) immediately (T0), and at 24 h (T24) and 48 h (T48) after wounding. The captured images were analyzed by ImageJ software v. 1.52p (U.S. National Institutes of Health, Bethesda, MD, USA) to measure the degree of closure of the wounded area. Independent experiments were performed three times.

SW620 cells [3] = assay: Cytotoxicity in SW620 cells after 24 h treatment (Table S2); format: cell-based; conditions: Homo sapiens, SW-620, read-out: IC50 (µM) following 24h treatment in SW620 cells
HT-29 cells [4] = assay: SRB assay, compound plus γ-radiation, HT-29; format: cell-based, human; conditions: IC50 concentration 24 h before 2 Gy γ-radiation, SRB 72 h after irradiation
Experimental: In the experiments involving irradiation, cells were irradiated at room temperature, in the vertical position with the cell monolayer facing ^60Co γ-rays (CIRUS-Cis Biointernational). The irradiation of samples was performed in Vinča Institute of Nuclear Sciences, Belgrade, Serbia. In all experiments, a clinically relevant radiation dose of 2 Gy with the dose rate of ~1 Gy/min was applied.
For the evaluation of cell viability after treatments with radiation as well as after combined treatments, a sulforhodamine B (SRB) protein binding assay was used. This assay is based on the staining of cellular proteins. Maintaining conditions were identical to that of MTT assay. The cells were pretreated with IC50 concentrations of tested compounds for 24 h before irradiations. Following the 72 h post-irradiation incubation time under standard conditions (5% CO2, 37 °C) cells were fixed by protein precipitation with 10% trichloroacetic acid (TCA) at 4 °C for 1 h. Plates were rinsed with distillated water and stained with 0.4% SRB (Sigma-Aldrich Chemie GmbH, Steinheim, Germany) in 1% acetic acid, for 15 min at room temperature. Excess stain was removed by washing the wells in 1% acetic acid. After being rinsed, microwell plates were air dried until no staining moisture was visible. Bound dye was dissolved in 10 mM unbuffered Tris base (pH 10.5) for 5 min on a gyratory shaker. The absorbance of each well was measured using a microplate reader (Wallac VICTOR2 1420 Multilabel counter, PerkinElmer, Turku, Finland) at a test wavelength of 550 nm.

SW620 cells [5] = conditions: cited from earlier work
in vivo = conditions: in vivo
Experimental: Wild-type (AB) zebrafish embryos, kindly provided by Dr. Ana Cvejić (Wellcome Trust Sanger Institute, Cambridge, UK), were raised to adult stage in a temperature- and light-controlled zebrafish facility at 28 °C and a standard 14:10 h light–dark photoperiod. Fish were fed with commercial dry food (SDS200 and SDS300 granular food; Special Diet Services, Essex; UK and TetraMinTM flakes; Tetra Melle, Germany) twice a day, and with Artemia nauplii daily.
Embryos produced by pairwise mating were washed to remove debris, distributed at 10 per well into 24-well plates containing 1 mL of E3 medium (5 mM NaCl, 0.17 mM KCl, 0.33 mM CaCl2 and 0.33 mM MgSO4 in distilled water) and maintained at 28 °C. […] Dead embryos were recorded and discarded every 24 h. […] Experiments were performed in triplicate using 30 embryos for each concentration. At 120 hpf, embryos were anesthetized by the addition of 0.1% (w/v) tricaine solution (Sigma-Aldrich, St. Louis, MO, USA), photographed, and killed by freezing at −20 °C for ≥24 h.

SMILES	IC50 (HCT 116 cells) [µM]	Selectivity index (IC50 normal cell line/IC50 cancer cell lines), HCT 116 (HCT 116 cells)	IC50 (BxPC-3 cells; Homo sapiens, BXPC-3, 72 h) [µM]	Selectivity index (IC50 normal cell line/IC50 cancer cell lines), BxPC-3 (BxPC-3 cells)	IC50 (HT-29 cells [1]) [µM]	Selectivity index (IC50 normal cell line/IC50 cancer cell lines), HT-29 (HT-29 cells [1])	IC50 (MRC-5 cells; Homo sapiens, MRC5, 72 h) [µM]	Selectivity index, MRC-5 (MRC-5 cells)	Relative Wound Closure (%) 24 h (SW620 cells [2])	Relative Wound Closure (%) 48 h (SW620 cells [2])	IC50 (SW620 cells [3]) [µM]	cell proliferation, combined treatment versus radiation alone, HT-29 (HT-29 cells [4])	IC50 (BxPC-3 cells) [µM]	IC50 (MRC-5 cells) [µM]	antimigratory effects on SW620 cell line (SW620 cells [5]; 10 nM, after 24 h)	migratory ability of SW620 cells (SW620 cells [5]; 400 μM, after 36 h)	LC50 (in vivo) [µM]	antimigratory properties in SW620 cells (SW620 cells [5]; 30 μM, 48 h)
COc1ccc2c(c1)c(CNC(=O)NO)c(C)n2C(=O)c1ccc(Cl)cc1 [Compound 1]	4.97 ± 0.78	1.95	12.8 ± 1.11	0.76	9.78 ± 0.68	0.99	9.68 ± 2.34	1	3.20% and 3.20 ± 0.99%	5.08% and 5.08 ± 2.46%	215 ± 4.9	–	–	–	–	–	–	–
CC(NC(=O)NO)c1ccc(-c2ccccc2)c(F)c1 (stereo not drawn) [Compound 2]	64.8 ± 2.76	1.07	48.7 ± 4.6	1.42	82.4 ± 4.25	0.84	69.1 ± 3.07	1	7.47 ± 2.14%	11.61 ± 3.06%	386 ± 11.8	–	–	–	–	–	–	–
COC(=O)C(Cc1cnc[nH]1)NC(=O)c1cc(C(C)(C)C)c(O)c(C(C)(C)C)c1 (stereo not drawn) [Compound 4]	29.5 ± 5.23	1.20	24.7 ± 2.01	1.43	42.3 ± 2.57	0.84	35.4 ± 4.14	1	–	–	–	–	–	–	–	–	–	–
COC(=O)CNC(=O)c1cc(C(C)(C)C)c(O)c(C(C)(C)C)c1 [Compound 5]	51.7 ± 1.78	> 1.94	41.2 ± 2.88	> 2.43	81.6 ± 2.77	> 1.22	> 100	–	7.12 ± 1.43%	9.11 ± 0.27%	132 ± 3.5	significantly inactivated HT-29 cells	–	–	–	–	–	–
CCOc1ccccc1NC(=O)N(C)C [Compound 8]	> 100	–	> 100	–	> 100	–	> 100	–	–	–	–	–	–	–	–	–	–	–
CN(C)C(=O)Nc1ccccc1C(=O)O [Compound 9]	> 100	–	> 100	–	> 100	–	> 100	–	–	–	–	–	–	–	–	–	–	–
CCOc1ccccc1NC(=O)Nc1ccc([N+](=O)[O-])cc1 [Compound 10]	9.3 ± 0.38	2.01	6.05 ± 1.68	3.09	7.08 ± 0.3	2.64	18.7 ± 0.98	1	–	–	–	–	–	–	–	–	–	–
CC(=O)N(O)C(C)c1ccc(CC(C)C)cc1 (stereo not drawn) [Compound 11]	82 ± 2.34	0.70	63 ± 3.8	0.91	84.1 ± 3.43	0.68	57.1 ± 3.8	1	–	–	–	–	–	–	–	–	–	–
COc1ccc2cc(C(C)N(O)C(C)=O)ccc2c1 (stereo not drawn) [Compound 12]	> 100	–	> 100	0.83	> 100	–	> 100	1	–	–	–	–	76.7 ± 5.54	63.6 ± 9.04	–	–	–	–
CC(C)(C)c1cc(/C=C2\SC(=S)N(N)C2=O)cc(C(C)(C)C)c1O [Compound 13]	2.21 ± 0.12	25.84	1.8 ± 0.1	31.72	12.4 ± 1.95	4.60	57.1 ± 3.8	1	–	–	–	–	–	–	–	–	–	–
O=C(O)Cc1ccccc1Nc1c(Cl)cccc1Cl [Diclofenac, reference compound]	79.1 ± 3.68	–	57.2 ± 3.03	–	75 ± 3.98	–	–	–	–	–	–	–	–	–	–	–	–	–
CC(C(=O)O)c1ccc(-c2ccccc2)c(F)c1 (stereo not drawn) [Flurbiprofen, reference compound]	> 100	–	> 100	–	> 100	–	> 100	–	–	–	–	–	–	–	significant antimigratory effects	–	–	–
COc1ccc2c(c1)c(CC(=O)O)c(C)n2C(=O)c1ccc(Cl)cc1 [Indomethacin, reference compound]	60.4 ± 4.27	1.32	85.9 ± 2.58	0.93	89.5 ± 4.45	0.89	79.8 ± 5.9	1	–	–	–	–	–	–	–	significantly decreased the migratory ability	–	–
CC(c1cc2ccccc2s1)N(O)C(N)=O (stereo not drawn) [Zileuton, reference compound]	44.9 ± 3.48	2.13	74.9 ± 4.1	1.28	78.5 ± 2.28	1.22	95.74 ± 0.94	1	–	–	–	–	–	–	–	–	4.41	–
Cc1ccc(-c2cc(C(F)(F)F)nn2-c2ccc(S(N)(=O)=O)cc2)cc1 [celecoxib]	–	–	–	–	–	–	–	–	–	–	–	–	–	–	–	–	–	comparable efficacy to compounds 1, 2, 3 and 5
